According to patent US6909014B2, “Intermediates for the synthesis of ether compounds” (Esperion Therapeutics, Inc., priority 1999, dated 2005):
Blank lines part the entries; values can stand above or below the compound they belong to.

Assays:
[1] = test system: hepatocytes isolated from a male Sprague-Dawley rat; experiment: Synthesis of non-saponified and saponified lipids (14C-acetate incorporation) in hepatocytes; format: cell-based; conditions: 100 μM, 14C-acetate labeling 2 hr (FIG. 18)
Description: A male Sprague-Dawley rat was anesthetized by administration of sodium pentobarbitol by intraparitoneal injection at 50 mg/kg. In situ perfusion of the liver was performed as follows. […] To digest the liver, DSC solution (6.7 mM KCl, 143 mM NaCl, 9.2 mM Na HEPES, 5 mM CaCl2-2H2O, 1.7 mM Fructose, 0.029 mM Phenol red, 0.2% BSA, 100 U/ml collagenase Type I, 93 U/ml Hyaluronidase, 160 BAEE/ml trypsin inhibitor, pH 7.5) was perfused through the liver at a flow rate of 30 ml/min for 6 minutes at a temperature of 37° C. After digestion, cells were dispersed in a solution of DMEM-(DMEM containing 2 mM GlutMax-1, 0.2% BSA, 5% FBS, 12 nM insulin, 1.2 μM hydrocortisone) to stop the digestion process. The crude cell suspension was filtered through three layers of stainless steel mesh with pore sizes of 250, 106, and 75 μm respectively. Filtered cells were centrifuged at 50×g for two minutes and the supernatant discarded. The resulting cell pellet was resuspended in DMEM and centrifuged again. This final cell pellet was resuspended in DMEM+HS solution (DMEM containing 2 mM GlutMax-1, 20 nM delta-aminolevulinic acid, 17.4 mM MEM non-essential amino acids, 20% FBS, 12 nM insulin, 1.2 μM hydrocortisone) and plated to form monolayer cultures at a density of 100×10^3 cells/cm^2 on collagen coated culture dishes. […]

female obese Zucker rats = experiment: Experiment A: serum lipids, glucose, non-esterified fatty acids and weight gain in obese female Zucker rats, seven days; format: in vivo, rat; conditions: Compound A 86 mg/kg, one week
Description: Dosing vehicle, Compound A (86 mg/kg of body weight) or troglitazone (120 mg/kg of body weight) was administered to eight week old female obese Zucker rats daily for seven days in the morning by oral gavage in 1.5% carboxymethylcellulose/0.2% Tween-20. Troglitazone was obtained commercially. Finely crushed tablets were suspended in vehicle for dosing. Orbital blood samples were obtained following a six-hour fast prior to the initial dose and also following the seventh dose.
Blood serum was assayed for total cholesterol and triglycerides (FIG. 5), lipoprotein cholesterol profiles (FIG. 6), VLDL plus LDL cholesterol combined (also referred to as apo B containing lipoprotein cholesterol or non-HDL cholesterol), HDL cholesterol, and the ratio of HDL cholesterol to that of VLDL plus LDL cholesterol (FIG. 7), serum glucose, and non-esterified fatty acids (FIG. 8), and percent weight gain (FIG. 9). […] In particular, Compound A caused a marked elevation in HDL cholesterol after one week of treatment. Using the serum total cholesterol values (FIG. 5A) and the lipoprotein cholesterol distribution (FIG. 6), the amount of cholesterol associated with non-HDL (i.e., VLDL plus LDL) and HDL were determined (FIG. 7). […] In contrast, troglitazone reduced non-HDL and HDL cholesterol by 67% and 4%, respectively.

[2] = test system: LDL receptor deficient mice; experiment: Lipoprotein cholesterol profile in LDL receptor-deficient mice; format: in vivo; conditions: 300 mg/kg/day, one week; 4 chow-fed female mice (FIG. 17)
From the text: The effect of Compound A on LDL levels in a murine model of homozygous familial hypercholesterolemia (Ishibashi et al., 1993, J. Clin. Invest. 92:883-893; Ishibashi et al., 1994, J. Clin. Invest. 93:1885-1893) was studied. LDL receptor-deficient mice have elevated LDL cholesterol relative to wild type mice when fed a chow diet. When fed cholesterol-enriched diets, these mice develop atherosclerosis.

[3] = test system: chow fed obese female Zucker rats; experiment: Experiments B, C, D, E: serum lipids, glucose, insulin, body and liver weight in obese female Zucker rats, 14 days; format: in vivo, rat
Description: In a number of different experiments, illustrative compounds of the invention and troglitazone were administered daily at various doses to 10-week old chow fed obese female Zucker rats for 14 days in the morning by oral gavage in 1.5% carboxymethylcellulose/0.2% Tween-20 (dosing vehicle). Animals were weighed daily. Animals were allowed free access to rodent chow and water throughout the study. Blood glucose was determined after a 6-hour fast in the afternoon without anesthesia from a tail vein. Serum was also prepared from a blood sample subsequently obtained from the orbital venous plexus (with O2/CO2 anesthesia) prior to and after one week treatment and used lipid and insulin determinations. At two weeks, blood glucose was again determined after a 6-hour fast without anesthesia from a tail vein. Soon thereafter, animals were sacrificed by CO2 inhalation in the evening and cardiac blood serum was collected and assessed for various lipids and insulin. Body weight was determined daily prior to dosing and at the time of euthanasia.

[4] = test system: chow fed male Sprague-Dawley rats; experiment: Serum lipids, lipoproteins, apolipoproteins and weight gain in chow fed male Sprague-Dawley rats after seven daily oral doses; format: in vivo, rat; conditions: 100 mg/kg, seven days, vs vehicle
Description: Illustrative compounds of the invention were administered daily at a dose of 100 mg/kg to chow fed male Sprague-Dawley rats for seven days in the morning by oral gavage in 1.5% carboxymethylcellulose/0.2% Tween-20 (dosing vehicle). Animals were weighed daily. Animals were allowed free access to rodent chow and water throughout the study. After the seventh dose, animals were sacrificed in the evening and blood serum was assayed for lipoprotein cholesterol profiles, serum triglycerides, total cholesterol VLDL, LDL, and HDL cholesterol, and the ratio of HDL cholesterol to that of VLDL plus LDL cholesterol, apolipoproteins A-I, C-II, C-III, and E by immunoelectrophoresis, and percent weight gain.
The five compounds were tested in two separate experiments. In each experiment, the experimental data were normalized against a control group of rats which received the dosing vehicle alone.

Compound: CC(C)(O)CCCCOCCCCC(C)(C)O [Compound F, 6-(5-hydroxy-5-methyl-hexyloxy)-2-methyl-hexan-2-ol]
rate of saponified fatty acid synthesis (in words) [1]: reduced the rates of saponified fatty acid synthesis

serum glucose (in words) (female obese Zucker rats): did not induce a hypoglycemic state
Compound: CC(C)(CO)CCCCOCCCCC(C)(C)CO [Compound A, 6-(6-hydroxy-5,5-dimethylhexyloxy)-2,2-dimethyl-hexan-1-ol]
HDL (in words) [2]: HDL elevation in all treated mice
LDL cholesterol (in words) [2]: rapid and significant reduction in LDL cholesterol
Body Weight Gain (% of Pre-treatment) ([3]; Experiment C, 1 mg/kg/day, 14 days, control +16.7): +16.7 % of Pre-treatment
Triglycerides (% of Pre-treatment) ([3]; Experiment C, 1 mg/kg/day, 14 days, control −11.2): −8.8 % of Pre-treatment
Body Weight Gain (% of Pre-treatment) ([3]; Experiment C, 3 mg/kg/day, 14 days, control +16.7): +17.5 % of Pre-treatment
Triglycerides (% of Pre-treatment) ([3]; Experiment C, 3 mg/kg/day, 14 days, control −11.2): −24.6 % of Pre-treatment
HDL-Cholesterol (% of Pretreatment) ([3]; Experiment C, 3 mg/kg/day, 14 days, control −29.8): −3.7 % of Pretreatment
Body Weight Gain (% of Pre-treatment) ([3]; Experiment C, 10 mg/kg/day, 14 days, control +16.7): +10.7 % of Pre-treatment
Triglycerides (% of Pre-treatment) ([3]; Experiment C, 10 mg/kg/day, 14 days, control −11.2): −50.9 % of Pre-treatment
Body Weight Gain (% of Pre-treatment) ([3]; Experiment C, 30 mg/kg/day, 14 days, control +16.7): +11.3 % of Pre-treatment
Triglycerides (% of Pre-treatment) ([3]; Experiment C, 30 mg/kg/day, 14 days, control −11.2): −42.0 % of Pre-treatment
Triglycerides (% of Pre-treatment) ([3]; Experiment C, 100 mg/kg/day, 14 days, control −11.2): −57.0 % of Pre-treatment
glucose to insulin ratio (in words) ([3]; Experiment C, Compound A 100 mg/kg (FIG. 14)): reduced
blood glucose (in words) ([3]; Experiment C, Compound A 100 mg/kg, troglitazone 40 mg/kg, fasted rats (FIG. 12)): tendency to lower blood glucose
reduction of serum triglycerides (in words) ([3]; Experiment C, Compound A 1-100 mg/kg, troglitazone 12, 40, 120 mg/kg (FIG. 10)): reduced serum triglyceride levels at all doses
glucose to insulin ratio (in words) ([3]; Experiment C, Compound A 1 and 3 mg/kg, two weeks (FIG. 14)): declined by approximately ⅓ to ½
weekly percent weight gain (in words) ([3]; Experiment C, Compound A 10, 30 and 100 mg/kg, after one and two weeks (FIG. 15)): markedly reduced
glucose to insulin ratio (in words) ([3]; Experiment C, Compound A 10 and 30 mg/kg (FIG. 14)): sustained at pretreatment levels
serum insulin (in words) ([3]; Experiment C, higher Compound A doses (FIG. 13)): sharp rise in serum insulin was largely curtailed or minimized
Triglycerides (% of Pre-treatment) ([3]; Experiment D, 10 mg/kg/day, 14 days, control +1.6): −11.1 % of Pre-treatment
Body Weight Gain (% of Pre-treatment) ([3]; Experiment D, 10 mg/kg/day, 14 days, control +10.6): +2.2 % of Pre-treatment
Triglycerides (% of Pre-treatment) ([3]; Experiment D, 100 mg/kg/day, 14 days, control +1.6): −62.9 % of Pre-treatment
Body Weight Gain (% of Pre-treatment) ([3]; Experiment D, 100 mg/kg/day, 14 days, control +10.6): +4.5 % of Pre-treatment
Non HDL-Cholesterol (% of Pretreatment) ([3]; Experiment D, 100 mg/kg/day, 14 days, control +15.2): +7.5 % of Pretreatment
Triglycerides (% of Pre-treatment) ([3]; Experiment E, 100 mg/kg/day, 14 days, control +12.0): −43.2 % of Pre-treatment
Body Weight Gain (% of Pre-treatment) ([3]; Experiment E, 100 mg/kg/day, 14 days, control +21.9): +19.1 % of Pre-treatment
Non HDL-Cholesterol (% of Pretreatment) ([3]; Experiment E, 100 mg/kg/day, 14 days, control −13.1): +7.2 % of Pretreatment
change in VLDL cholesterol [4]: no change

Compound: CC(C)(CCCCOCCCCC(C)(C)OP(=O)(O)O)OP(=O)([O-])[O-].[Na+].[Na+] [Compound B, phosphoric acid mono-(1,1-dimethyl-5-(5-methyl-5-phosphonooxy-hexyloxy)-pentyl) ester sodium salt]
Body Weight Gain (% of Pre-treatment) ([3]; Experiment B, 100 mg/kg/day, 14 days, control +10.7): +12.0 % of Pre-treatment
Triglycerides (% of Pre-treatment) ([3]; Experiment B, 100 mg/kg/day, 14 days, control −31.9): +24.6 % of Pre-treatment

Compound: CC(C)(CCCOCCCC(C)(C)OP(=O)(OCc1ccccc1)OCc1ccccc1)OP(=O)(OCc1ccccc1)OCc1ccccc1 [Compound E, phosphoric acid dibenzyl ester 4-(4-(bis-benzyloxy-phosphoryloxy)-4-methyl-pentyloxy)-1,1-dimethyl-butyl ester]
rate of saponified fatty acid synthesis (in words) [1]: reduced the rates of saponified fatty acid synthesis
